≈ marks a conversion by molar mass, not a printed value. Where “and” joins values, the source holds several entries; their conditions need not be identical. Identical values can stand only once.
What was measured:
[1] = Logarithm of the octanol: water partition coefficient; cited from earlier work
[2] = Crystal solubility at 25° C.; cited from earlier work
[3] = at 20° C.; cited from earlier work
[4] = Fenton reaction degradation of PAHs in Quakertown silt loam; conditions: for % reduced / degraded by Fenton reaction: ratio 10:1 ([H2O2:FeSO4]=[2.0 g:0.2 g]), 24-h oxidation, model soil
[5] = Hydrogen peroxide oxidation of PAHs at near neutral pH (modified Fenton's reagent) in Quakertown silt loam
[6] = Fenton reaction degradation of PAHs in MGP soil; conditions: FR: Fenton's reagent treatment for 24 hours
Text: Coal tar-contaminated soil was collected from a former manufactured gas plant site in New Jersey. The soil was classified as loamy sand, consisting of 78% sand, 11% silt, and 11% clay.
Fenton's reagent was generated by mixing hydrogen peroxide (30%, w/v) with FeSO4.7H2O in varying ratios to determine the optimum conditions for the degradation of PAHs. The sequence of reagent addition seemed to be important to ensure that the reaction occurred efficiently, as well as to ensure that the reaction could be safely maintained. Desired amounts of ferrous sulfate were added to 10 g of PAHs-spiked soil or 5 g of MGP soil in 20 mL of distilled water containing 0.02% HgCl2. To the soil slurry, hydrogen peroxide was introduced gradually by pipetting (ca. 0.3 g each with 10-min intervals), and the reaction was allowed to occur for 24 h on an orbital platform shaker at room temperature.
The soil slurry used for either biodegradation or Fenton-type reaction, or both, was transferred to a 50-mL Teflon centrifuge tube and centrifuged at 18,600× g for 15 min. After removing the supernatant, 10 mL each of dichloromethane and acetone were added to the soil and the soil-solvent suspension was shaken (200 rpm) for 48 h at 30° C. for the extraction of PAHs. The tube was then centrifuged at 18,600× g for 15 min and the solvent mixture was transferred to a 50-mL test tube. After removing excess water (upper layer; ca. 2 mL) by pipetting, 4 g of anhydrous sodium sulfate were mixed with the PAHs-containing solvent to remove residual water completely from solvent. […] The extract was then concentrated to 1 to 2 mL using an evaporator (Büchi Rotavapor; Buchler Instruments Inc., Fort Lee, N.J.) for further analysis.
The extract was passed through a 0.45-μm PTFE syringe filter to remove any particulates present and analyzed by a gas chromatograph (GC) equipped with a flame ionization detector (Varian Star 3500; Varian Chromatograph Systems, Walnut, Calif.). The GC was installed with a Rtx-5 silica column crossbonded with 5% diphenyl and 95% dimethylpolysiloxane (30 m×0.53 mm inner diameter; Restek Corporation, Bellefonte, Pa.). The oven temperature was programmed at 40° C. for 6 min, followed by a linear increase of 10° C. per minute to 300° C., and then the temperature was held for 15 min. Injector and detector temperatures were maintained at 300° C. Two microliters of the extract were injected and nitrogen was used as a carrier gas.

[7] = Hydrogen Peroxide (2g), 100 mg Ferrous Sulfate, Quakertown silt loam
[8] = Hydrogen Peroxide (2g), 200 mg Ferrous Sulfate, Data from TABLE 3
[9] = Hydrogen Peroxide (2g), No FeSO4, Quakertown silt loam
[10] = ratio 5:1, [H2O2:FeSO4] = [1.0 g:0.2 g], 24 h, Quakertown silt loam
[11] = ratio 10:1 (footnote d), [H2O2:FeSO4] = [0.2 g:0.2 g] [sic], 24 h, Quakertown silt loam
[12] = ratio 10:1 (footnote e), [H2O2:FeSO4] = [1.0 g:0.1 g], 24 h, Quakertown silt loam
[13] = ratio head 1.1, [H2O2:FeSO4] = [0.2 g:0.2 g], 24 h, Quakertown silt loam
[14] = mFR + gallic acid, pH ca. 6.0-6.5

Row | Compound | Log Kow [1] | Solubility in water [2] | Vapor Pressure [3] | % remaining in soil [4, 7] | % remaining in soil [4, 8] | % remaining in soil [4, 9] | % remaining in soil [4, 10] | % reduced / degraded by Fenton reaction [4] | % remaining in soil [4, 11] | % remaining in soil [4, 12] | % remaining in soil [4, 13] | % remaining in soil ([5]; FR + CaCO3, pH ca. 6.0-6.5) | % remaining in soil ([5]; mFR + catechol, pH ca. 6.0-6.5) | % remaining in soil [5, 14] | % remaining in soil [6]
1 | c1ccc2cc3ccccc3cc2c1 [Anthracene, anthracene] | 4.45 | 0.07 µg/mL (≈ 0.393 µM) | 1.9 × 10^−4 | 76.3b % | 61.9c % | 92.7a % | 75.9b % | about 40% | 61.9c % | 79.3b % | 100a % | 78.1a % | 70.8ab % | 66.8b % | –
2 | c1ccc2c(c1)cc1ccc3cccc4ccc2c1c34 [Benzo(a)pyrene, benzo(a)pyrene] | – | – | – | 10.5b % | 3.3c % | 73.2a % | 35.3b % | – | 3.3% and 3.3c % | 60.9d % | 84.8a % | 73.1a % | 54.8b % | 49.6b % | –
3 | c1ccc2c(c1)ccc1c3ccccc3ccc21 [Chrysene, chrysene] | 5.61 | 0.006 µg/mL (≈ 0.0263 µM) | 6.3 × 10^−7 | 72.6a % | 88.1b % | 77.0ab % | 87.0b % | ~12% | 88.1b % | 98.2c % | 100a % | 100a % | 100a % | 91.1b % | 50.8b %
4 | c1ccc2c(c1)Cc1ccccc1-2 [Fluorene, fluorene] | 4.18 | – | 1.3 × 10^−2 | – | – | – | – | – | – | – | – | – | – | – | 10.3a %
5 | c1ccc2ccccc2c1 [Naphthalene, naphthalene] | – | 32 µg/mL (≈ 250 µM) | 4.9 × 10^−2 | – | – | – | – | – | – | – | – | – | – | – | –
6 | c1ccc2c(c1)ccc1ccccc12 [Phenanthrene, phenanthrene] | 4.46 | 1.0 µg/mL (≈ 5.61 µM) | 6.8 × 10^−4 | – | – | – | – | – | – | – | – | – | – | – | 16.8a %
7 | c1cc2ccc3cccc4ccc(c1)c2c34 [Pyrene, pyrene] | 5.32 | – | 6.8 × 10^−7 | 16.3b % | 15.5c % | 88.3a % | 51.0b % | – | 15.5c % | 26.3d % | 95.4a % | 77.1a % | 58.3b % | 58.9b % | 53.4a %
